According to the supplement of paper PMC11208160:
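Also: IS621 recombinase and bridge RNA in Escherichia coli cells.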

Experiment: recombinant barcode read abundance after kanamycin selection (control-corrected) (log10(CPM+1)); higher = more efficient recombination; sequences stand for … in AGTGCAGAGAAAATCGGCCAGTTTTCTCTGCCTGCAGTCCGCATGCCGT…AGATTTATGCAGCGGACTGCCTTTCTCCCAAAGTGATAAACCGGACAGTATCATGGACCGGTTTTCCCGGTAATCCGTATTTGCAAGGTTGGTTTCACT; site = the 11-nt target
In short: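 Pooled oligos, each joining a target to an IS621 bridge RNA target-binding loop, were cloned and co-electroporated with a donor plasmid into E. coli. Selective plates carried chloramphenicol/ampicillin/kanamycin and 0.1 mM IPTG, while chloramphenicol/ampicillin LB agar served as control, with two replicates of each. Recombination efficiency rests on averaged, control-corrected counts per million of barcodes at recombinant junctions, shown as log10(CPM+1).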
In the case of “TGTGGAGCTTGGGTTCTAACCTGTTGCCG (site TGTCGAGCTCG)”, the “recombinant barcode read abundance (log10)” value is reported as 0.469.
For “TGTGGAGCTTGGGTTCTAACCTGTTGCCG (site TGTGGAGCTCG)”, the “recombinant barcode read abundance (log10)” value was 1.24.
With “TGTGGAGCTTGGGTTCTAACCTGTTGCCG (site TGTTGAGCTCG)” the “recombinant barcode read abundance (log10)” value was 0.00933.
In the case of “TGTGTCCCTTGGGTTCTAACCTGTTGCCT (site TGAGTCCCTAG)”, the “recombinant barcode read abundance (log10)” value is reported as 0.159.
For “TGTGTCCCTTGGGTTCTAACCTGTTGCCT (site TGCGTCCCTAG)”, the “recombinant barcode read abundance (log10)” value was 0.139.
In the case of “TGTGTCCCTTGGGTTCTAACCTGTTGCCT (site TGGGTCCCTAG)”, the “recombinant barcode read abundance (log10)” value is reported as 0.123.
For “TGTGTCCCTTGGGTTCTAACCTGTTGCCT (site TGTGTCCCTAG)”, the “recombinant barcode read abundance (log10)” value was 1.14.
With “TGTTAGTCTTGGGTTCTAACCTGTTGCCG (site TGTTAGACTAG)” the “recombinant barcode read abundance (log10)” value was 0.0136.
In the case of “TGTTAGTCTTGGGTTCTAACCTGTTGCCG (site TGTTAGTCTCG)”, the “recombinant barcode read abundance (log10)” value is reported as 0.0597.
In the case of “TGTTCAGCTTGGGTTCTAACCTGTTGCCT (site CACAGGCCTCT)”, the “recombinant barcode read abundance (log10)” value is reported as 0.0146.
In the case of “TGTTCAGCTTGGGTTCTAACCTGTTGCCT (site TGTTCAGCTAG)”, the “recombinant barcode read abundance (log10)” value is reported as 0.066.
For “TGTTCTACTTGGGTTCTAACCTGTTGCTT (site TGATCTACTAA)”, the “recombinant barcode read abundance (log10)” value was 0.0326.
For “TGTTCTACTTGGGTTCTAACCTGTTGCTT (site TGCTCTACTAA)”, the “recombinant barcode read abundance (log10)” value was 0.246.
For “TGTTCTACTTGGGTTCTAACCTGTTGCTT (site TGGTCTACTAA)”, the “recombinant barcode read abundance (log10)” value was 0.0191.
In the case of “TGTTCTACTTGGGTTCTAACCTGTTGCTT (site TGTTCTACTAA)”, the “recombinant barcode read abundance (log10)” value is reported as 0.0296.
With “TGTTGAGCTTGGGTTCTAACCTGTTGCAG (site TGTAGAGCTCT)” the “recombinant barcode read abundance (log10)” value was 0.148.
In the case of “TGTTGAGCTTGGGTTCTAACCTGTTGCAG (site TGTTGAGCTCT)”, the “recombinant barcode read abundance (log10)” value is reported as 0.468.
For “TGTTGGACTTGGGTTCTAACCTGTTGCTT (site TCTTAGACTAA)”, the “recombinant barcode read abundance (log10)” value was 0.0262.
In the case of “TGTTGGACTTGGGTTCTAACCTGTTGCTT (site TGTTGGACTAA)”, the “recombinant barcode read abundance (log10)” value is reported as 0.16.
With “TGTTGGTCTTGGGTTCTAACCTGTTGCTT (site GAACTCCCTCC)” the “recombinant barcode read abundance (log10)” value was 0.0579.
In the case of “TGTTGGTCTTGGGTTCTAACCTGTTGCTT (site TGTTGGTCTAA)”, the “recombinant barcode read abundance (log10)” value is reported as 0.0212.
For “TGTTGTCCTTGGGTTCTAACCTGTTGCTG (site AACATAACTAC)”, the “recombinant barcode read abundance (log10)” value was 0.141.
In the case of “TGTTGTCCTTGGGTTCTAACCTGTTGCTG (site TGTTGTCCTCA)”, the “recombinant barcode read abundance (log10)” value is reported as 0.0482.
In the case of “TGTTGTGCTTGGGTTCTAACCTGTTGCCT (site TGGCGTGCTAG)”, the “recombinant barcode read abundance (log10)” value is reported as 0.101.
In the case of “TGTTGTGCTTGGGTTCTAACCTGTTGCCT (site TGTTGTGCTAG)”, the “recombinant barcode read abundance (log10)” value is reported as 0.109.
In the case of “TTAAATCCTTGGGTTCTAACCTGTTGCCT (site ATAAATCCTAG)”, the “recombinant barcode read abundance (log10)” value is reported as 0.143.
With “TTAAATCCTTGGGTTCTAACCTGTTGCCT (site CTAAATCCTAG)” the “recombinant barcode read abundance (log10)” value was 0.183.
In the case of “TTAAATCCTTGGGTTCTAACCTGTTGCCT (site GTAAATCCTAG)”, the “recombinant barcode read abundance (log10)” value is reported as 0.249.
With “TTAAATCCTTGGGTTCTAACCTGTTGCCT (site TTAAATCCTAG)” the “recombinant barcode read abundance (log10)” value was 0.219.
With “TTAACGGCTTGGGTTCTAACCTGTTGCCT (site TTAACGGCTAG)” the “recombinant barcode read abundance (log10)” value was 0.556.
For “TTAACGGCTTGGGTTCTAACCTGTTGCCT (site TTCACGGCTAG)”, the “recombinant barcode read abundance (log10)” value was 0.186.
With “TTACAGGCTTGGGTTCTAACCTGTTGCCG (site GGCATCCCTTA)” the “recombinant barcode read abundance (log10)” value was 0.0374.
With “TTACAGGCTTGGGTTCTAACCTGTTGCCG (site TTACAGGCTCG)” the “recombinant barcode read abundance (log10)” value was 1.13.
With “TTACCAACTTGGGTTCTAACCTGTTGCCT (site TTACCAACTAG)” the “recombinant barcode read abundance (log10)” value was 1.61.
For “TTACCAACTTGGGTTCTAACCTGTTGCCT (site TTACCCACTAG)”, the “recombinant barcode read abundance (log10)” value was 0.629.
For “TTACCAACTTGGGTTCTAACCTGTTGCCT (site TTACCGACTAG)”, the “recombinant barcode read abundance (log10)” value was 0.0912.
With “TTACCAACTTGGGTTCTAACCTGTTGCCT (site TTACCTACTAG)” the “recombinant barcode read abundance (log10)” value was 0.12.
In the case of “TTACCGACTTGGGTTCTAACCTGTTGCCT (site TTACCAACTAG)”, the “recombinant barcode read abundance (log10)” value is reported as 1.23.
With “TTACCGACTTGGGTTCTAACCTGTTGCCT (site TTACCCACTAG)” the “recombinant barcode read abundance (log10)” value was 0.242.
With “TTACCGACTTGGGTTCTAACCTGTTGCCT (site TTACCGACTAG)” the “recombinant barcode read abundance (log10)” value was 2.33.
In the case of “TTACCGACTTGGGTTCTAACCTGTTGCCT (site TTACCTACTAG)”, the “recombinant barcode read abundance (log10)” value is reported as 0.0567.
With “TTACGTCCTTGGGTTCTAACCTGTTGCGG (site TCACGTCCTCC)” the “recombinant barcode read abundance (log10)” value was 1.31.
For “TTACGTCCTTGGGTTCTAACCTGTTGCGG (site TTACGTCCTCC)”, the “recombinant barcode read abundance (log10)” value was 1.74.
